The source of these data is patent US20050186587A1, “Method for screening a substance which can suppress degradation of a nuclear receptor or a substance which can promote degradation of a nuclear receptor” (Interite, Inc., priority 2004, published 2005).

For one series, the target named is T1, Flag-ERαΔAD (Homo sapiens, UniProt P03372).
T1 construct: ERαΔAD (1-534) consisting of amino acids 1 through 534; expressed in transfected cells; host or cells: 293 cells
T1 sequence (P03372 1-534): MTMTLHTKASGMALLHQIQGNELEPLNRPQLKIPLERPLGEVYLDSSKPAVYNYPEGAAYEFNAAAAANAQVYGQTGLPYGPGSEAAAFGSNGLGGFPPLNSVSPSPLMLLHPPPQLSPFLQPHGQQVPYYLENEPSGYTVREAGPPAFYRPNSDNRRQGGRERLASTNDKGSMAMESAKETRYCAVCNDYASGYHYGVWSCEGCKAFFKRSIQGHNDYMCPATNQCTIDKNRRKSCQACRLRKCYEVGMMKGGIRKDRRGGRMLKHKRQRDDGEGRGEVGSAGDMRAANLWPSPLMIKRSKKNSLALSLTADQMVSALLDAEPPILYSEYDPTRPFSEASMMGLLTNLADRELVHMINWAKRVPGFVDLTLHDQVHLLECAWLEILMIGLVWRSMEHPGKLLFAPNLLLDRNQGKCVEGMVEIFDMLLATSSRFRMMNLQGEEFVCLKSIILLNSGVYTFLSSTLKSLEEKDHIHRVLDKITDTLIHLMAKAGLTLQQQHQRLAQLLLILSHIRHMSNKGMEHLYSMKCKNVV
The series can be described thus: Ubiquitination of Flag-ERαΔAD expressed in 293 cells, immune precipitation and anti-ubiquitin Western blotting. It is filed as cell-based. Particulars: no estrogen added but MG132 added, FIG. 3 lane 3. (Immunoblotting shows a protein as a band on a membrane.)

Another series deals with ERαΔAD. It is filed as cell-based, human. Particulars: 293 cells, 1 μM MG132, FIG. 2 lanes 2 and 4.
For series [1], the target named is T2, estrogen receptor alpha (ERα) (Homo sapiens, UniProt P03372).
T2 construct: ERα was first purified from MCF-7 cell nucleus extract by immune precipitation; endogenous in cells; host or cells: MCF-7 cells
The series can be described thus: Amount of ERα in MCF-7 cell nucleus extracts by Western blotting (Test Example 1). In kind it is cell-based. The conditions noted are these: MCF-7 cells, MG132 at 1 μM, both with and without estrogen, FIG. 1(b) lanes 3 and 4.
Protocol: HeLa cells, human breast cancer-derived MCF-7 cells and human fetal kidney-derived 293 cells were cultured at 37° C. in Dulbecco's modified Eagle's medium (DMEM) containing 10% FCS in humidified air containing 5% (partial pressure) carbon dioxide gas.
10 μg of each extract of MCF-7 cells and 293 cells was isolated by 8% or 10% SDS-PAGE, and transferred to a nitrocellulose membrane. This membrane was incubated for 1 hour in a blocking solution of 1% BSA (bovine serum albumin) and 5% skim milk added to 25 mM tris-buffered saline containing 0.02% Tween20 (T-TBS), and then reacted with the respective antibodies for 1 hour at 25° C. After being washed 3 times for 10 minutes each in 25° C. T-TBS, the membranes were incubated for 1 minute at 25° C. with peroxidase-bound goat anti-mouse antibodies. Protein that reacted with the antibodies was made visible with an Amersham Pharmacia high-sensitivity chemical luminescence detection system (ECL).

The test system of series [2] is ERα, ERα(V364E), ERα(C447A), ERαΔAD or ERα(L540Q). The series can be described thus: Amount of normal and mutant ERα protein in 293 cells with proteasome inhibitor (Test Example 8, FIG. 11). The conditions noted are these: MG132 added to the cells, FIG. 11 lanes 1 through 5. In kind it is cell-based, human. On the procedure: CHIP or CHIPΔUbox (a mutant having the ubiquitin ligase activity removed) were made to be expressed in cells already co-expressing normal ERα and a dominant negative mutant of ERα, and the transcriptional activation ability of ERα was measured. […] The amount of ERα in the cell nucleus extract was measured at the same time by Western blotting. ERα(V364E), ERα(C447A), ERαΔAD and ERα(L540Q) were used as the dominant negative mutants of ERα. […] ERαΔAD is a helix 12 deletion mutant, while ERα(L540Q) is a helix 12 single-residue substitution mutant, and the transcriptional activity of both is low because they can no longer bind to transcriptional activation factors. ERαΔAD and ERα(L540Q) are not temperature sensitive.
The amount of protein was also slightly lower in the case of ERαΔAD (See FIG. 11 lane 4).

In a further series the target is T3, ERα (Homo sapiens, UniProt P03372).
T3 sequence (P03372 1-595): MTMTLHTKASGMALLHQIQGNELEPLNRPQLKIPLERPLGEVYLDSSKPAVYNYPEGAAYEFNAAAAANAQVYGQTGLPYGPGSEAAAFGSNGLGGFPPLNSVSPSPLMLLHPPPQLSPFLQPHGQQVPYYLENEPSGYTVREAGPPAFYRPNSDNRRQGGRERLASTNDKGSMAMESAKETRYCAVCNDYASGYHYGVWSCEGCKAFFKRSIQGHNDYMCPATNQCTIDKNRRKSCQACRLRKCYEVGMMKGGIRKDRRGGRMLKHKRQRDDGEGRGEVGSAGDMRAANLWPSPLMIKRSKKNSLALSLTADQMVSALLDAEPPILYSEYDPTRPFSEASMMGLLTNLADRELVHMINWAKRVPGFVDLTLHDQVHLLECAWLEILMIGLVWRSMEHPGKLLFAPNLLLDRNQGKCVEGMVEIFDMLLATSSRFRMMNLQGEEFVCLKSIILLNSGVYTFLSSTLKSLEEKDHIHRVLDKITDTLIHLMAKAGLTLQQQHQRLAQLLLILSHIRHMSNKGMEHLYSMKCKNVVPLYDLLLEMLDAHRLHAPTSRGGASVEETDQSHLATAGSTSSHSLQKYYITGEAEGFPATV
Particulars: 293 cells, 24 hours, 1 μM OHT or 100 nM ICI (or estrogen), FIG. 7, FIGS. 8(a) and (b).

For another series, the target named is T4, ERα and CHIP (Homo sapiens, UniProt P03372).
T4 sequence (P03372 1-595): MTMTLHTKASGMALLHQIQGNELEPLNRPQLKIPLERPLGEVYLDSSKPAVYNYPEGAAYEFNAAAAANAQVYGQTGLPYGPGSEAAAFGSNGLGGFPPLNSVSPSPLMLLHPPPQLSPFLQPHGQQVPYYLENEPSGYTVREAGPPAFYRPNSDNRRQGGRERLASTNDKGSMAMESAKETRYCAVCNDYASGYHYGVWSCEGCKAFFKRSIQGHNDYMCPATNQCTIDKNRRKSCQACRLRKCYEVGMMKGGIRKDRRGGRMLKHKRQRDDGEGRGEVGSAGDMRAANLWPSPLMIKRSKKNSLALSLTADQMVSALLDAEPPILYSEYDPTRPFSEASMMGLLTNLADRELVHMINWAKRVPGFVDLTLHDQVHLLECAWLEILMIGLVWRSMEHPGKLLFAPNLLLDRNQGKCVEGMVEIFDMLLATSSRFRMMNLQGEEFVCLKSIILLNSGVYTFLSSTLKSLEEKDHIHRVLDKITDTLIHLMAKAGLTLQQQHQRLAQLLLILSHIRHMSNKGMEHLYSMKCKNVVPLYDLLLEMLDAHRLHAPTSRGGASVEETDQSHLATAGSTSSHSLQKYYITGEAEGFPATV
The conditions noted are these: 293 cells, 24 hours, 10 nM estrogen, 1 μM tamoxifen (OHT) or 100 nM fulvestrant (ICI), FIG. 6.

The target of series [3] is T5, estrogen receptor alpha (ERα), not bound to a ligand, P03372.
T5 chain: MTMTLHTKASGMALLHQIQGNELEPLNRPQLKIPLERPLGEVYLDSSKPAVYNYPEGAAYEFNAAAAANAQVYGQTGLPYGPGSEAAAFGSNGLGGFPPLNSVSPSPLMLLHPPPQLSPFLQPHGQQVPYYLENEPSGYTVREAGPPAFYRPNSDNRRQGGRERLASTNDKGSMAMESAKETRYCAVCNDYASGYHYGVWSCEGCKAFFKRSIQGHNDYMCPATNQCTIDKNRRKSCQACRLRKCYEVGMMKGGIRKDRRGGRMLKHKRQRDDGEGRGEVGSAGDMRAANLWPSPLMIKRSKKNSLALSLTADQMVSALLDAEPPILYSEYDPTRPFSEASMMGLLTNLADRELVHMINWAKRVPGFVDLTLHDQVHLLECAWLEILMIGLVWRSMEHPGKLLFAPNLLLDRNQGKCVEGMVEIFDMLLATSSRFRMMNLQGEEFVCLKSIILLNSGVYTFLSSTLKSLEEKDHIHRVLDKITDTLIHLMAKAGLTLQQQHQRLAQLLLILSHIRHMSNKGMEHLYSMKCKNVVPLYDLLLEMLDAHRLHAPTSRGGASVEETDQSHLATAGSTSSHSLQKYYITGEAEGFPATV

Where a SMILES comes first, the peptide text is derived from it. The star is where a group is joined. Cbz = O=C(OCc1ccccc1)*

Protocol for ERα and CHIP: The target DNA was diluted with 100 μL of OptiMEM medium (Life Technologies, Inc.). The amount of DNA was adjusted to a total of 1 μg by addition of blank vector. 10 μL of lipofectamine reagent (Life Technologies, Inc.) was diluted in the same way with 100 μL of OptiMEM medium. After being left at room temperature for 5 minutes, the two liquids were mixed and left for an additional 20 minutes to form a complex. This mixture was then dripped directly onto cells seeded on 12-well plates and cultured to 40-50% confluence in DMEM containing 0.2% FCS treated with activated charcoal, and transfection was performed. 6 hours after transfection normal medium was substituted, and after 24 hours' further culture the ligand was added.
GST pull-down was performed by well-known methods (Yanagisawa, J. et al, Molecular Cell (2002) March, 9(3):553-562). […]
Western blotting using the respective antibodies was accomplished by well-known methods (Yanagisawa, J. et al, Molecular Cell (2002) March, 9(3):553-562) with some alterations. […] Protein that reacted with the antibodies was made visible with an Amersham Pharmacia high-sensitivity chemical luminescence detection system (ECL). […]
Protocol for Flag-ERαΔAD: About 50 μg of MCF-7 cell nucleus extract or 293 cell nucleus extract was incubated for 1 hour at 4° C. in 25 mM tris-buffered saline containing 0.1% Tween20 (T-TBS) together with 50 μg of either glutathione sepharose beads or anti-Flag tag antibody beads (Santa Cruz Biotechnology). Beads to which protein had bound were washed 4 times with 25 mM tris-buffered saline containing 0.1% Tween20 and centrifuged for 1 minute at 5000 rpm, and the beads were collected. Protein was eluted from the beads by boiling in loading buffer.
Western blotting using the respective antibodies was accomplished by well-known methods (Yanagisawa, J. et al, Molecular Cell (2002) March, 9(3):553-562) with some alterations. 10 μg of each extract of MCF-7 cells and 293 cells was isolated by 8% or 10% SDS-PAGE, and transferred to a nitrocellulose membrane. This membrane was incubated for 1 hour in a blocking solution of 1% BSA (bovine serum albumin) and 5% skim milk added to 25 mM tris-buffered saline containing 0.02% Tween20 (T-TBS), and then reacted with the respective antibodies for 1 hour at 25° C. After being washed 3 times for 10 minutes each in 25° C. T-TBS, the membranes were incubated for 1 minute at 25° C. with peroxidase-bound goat anti-mouse antibodies. Protein that reacted with the antibodies was made visible with an Amersham Pharmacia high-sensitivity chemical luminescence detection system (ECL).

On to `CC(C)C[C@@H](C=O)NC(=O)[C@H](CC(C)C)NC(=O)[C@H](CC(C)C)NC(=O)OCc1ccccc1` [MG132] (Cbz-Leu-Leu-Leu-aldehyde), for which, on Flag-ERαΔAD, the “ubiquitinated ERαΔAD (Flag-ERαΔAD-Ub)” value is recorded as “strong accumulation of a polyubiquitin protein”. For the same molecule, the “degradation of ERαΔAD” value with ERαΔAD is “inhibited”. Moreover, the “amount of ERα” value in series [1] is reported as “increased dramatically”. Also, in series [2], the “amount of expression of mutant ERα versus normal ERα” value was “no difference between the various mutants and normal ERα”.

For the molecule `C[C@]12CC[C@@H]3c4ccc(O)cc4C[C@@H](CCCCCCCCC[S+]([O-])CCCC(F)(F)C(F)(F)F)[C@H]3[C@@H]1CC[C@@H]2O` (some centres unmarked) [fulvestrant], at ERα, the “degradation of ERα by CHIP” value is on record as “block degradation of ERα by CHIP”. The “co-precipitation of ERα with CHIP” value on ERα and CHIP is given as “co-precipitated with CHIP only when cultured without the addition of a ligand”.

B1: CHIP (carboxyl-terminus of Hsc70 interacting protein) (protein)
chain: MKGKEEKEGGARLGAGGGSPEKSPSAQELKEQGNRLFVGRKYPEAAACYGRAITRNPLVAVYYTNRALCYLKMQQHEQALADCRRALELDGQSVKAHFFLGQCQLEMESYDEAIANLQRAYSLAKEQRLNFGDDIPSALRIAKKKRWNSIEERRIHQESELHSYLSRLIAAERERELEECQRNHEGDEDDSHVRAQQACIEAKHDKYMADMDELFSQVDEKRKKRDIPDYLCGKISFELMREPCITPSGITYDRKDIEEHLQRVGHFDPVTGSPLTQEQFIPNLAMKEVIDAFISENGWVEDY
As for B1, the “amount of degradation of ERα measured by Western blotting” value in series [3] is “both ERαΔAD and ERα were strongly degraded when estrogen was not added (see FIG. 7, lane 3). This degradation increased when the expressed amount of CHIP was increased”. In the series with ERαΔAD, P03372, the “amount of degradation of ERαΔAD measured by Western blotting” value was “both ERαΔAD and ERα were strongly degraded when estrogen was not added (see FIG. 7, lane 3). This degradation increased when the expressed amount of CHIP was increased”.
